Test results taken from patent publication US8853203B2, “Diazepinone derivatives” (Novartis AG, priority 2012, dated 2014).
pIC50: −log10 of the molar value.

Columns and labels:
human mGluR1 = human mGluR1 (Homo sapiens (Human), UniProt Q13255); assay: mGluR1 antagonism, L-glutamate induced intracellular calcium increase (FLIPR) in CHO cells stably expressing human mGluR1; type: cell-based; conditions: L-glutamate induced intracellular calcium, CHO cells expressing human mGluR1, FLIPR
human mGluR5a receptors = human mGluR5a receptors (Homo sapiens (Human), UniProt P41594); assay: inhibition of glutamate-induced elevation of intracellular calcium in L(tk-) cells expressing human mGluR5a; type: cell-based; conditions: glutamate-induced intracellular calcium elevation, L(tk-) cells expressing human mGluR5a; read-out: mGluR5 IC50
How it was run: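 Compounds tested for inhibition of the glutamate-induced rise in intracellular calcium concentration in L(tk-) cells stably expressing human mGluR5a.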

Sequence of human mGluR1 (Q13255 19-1194): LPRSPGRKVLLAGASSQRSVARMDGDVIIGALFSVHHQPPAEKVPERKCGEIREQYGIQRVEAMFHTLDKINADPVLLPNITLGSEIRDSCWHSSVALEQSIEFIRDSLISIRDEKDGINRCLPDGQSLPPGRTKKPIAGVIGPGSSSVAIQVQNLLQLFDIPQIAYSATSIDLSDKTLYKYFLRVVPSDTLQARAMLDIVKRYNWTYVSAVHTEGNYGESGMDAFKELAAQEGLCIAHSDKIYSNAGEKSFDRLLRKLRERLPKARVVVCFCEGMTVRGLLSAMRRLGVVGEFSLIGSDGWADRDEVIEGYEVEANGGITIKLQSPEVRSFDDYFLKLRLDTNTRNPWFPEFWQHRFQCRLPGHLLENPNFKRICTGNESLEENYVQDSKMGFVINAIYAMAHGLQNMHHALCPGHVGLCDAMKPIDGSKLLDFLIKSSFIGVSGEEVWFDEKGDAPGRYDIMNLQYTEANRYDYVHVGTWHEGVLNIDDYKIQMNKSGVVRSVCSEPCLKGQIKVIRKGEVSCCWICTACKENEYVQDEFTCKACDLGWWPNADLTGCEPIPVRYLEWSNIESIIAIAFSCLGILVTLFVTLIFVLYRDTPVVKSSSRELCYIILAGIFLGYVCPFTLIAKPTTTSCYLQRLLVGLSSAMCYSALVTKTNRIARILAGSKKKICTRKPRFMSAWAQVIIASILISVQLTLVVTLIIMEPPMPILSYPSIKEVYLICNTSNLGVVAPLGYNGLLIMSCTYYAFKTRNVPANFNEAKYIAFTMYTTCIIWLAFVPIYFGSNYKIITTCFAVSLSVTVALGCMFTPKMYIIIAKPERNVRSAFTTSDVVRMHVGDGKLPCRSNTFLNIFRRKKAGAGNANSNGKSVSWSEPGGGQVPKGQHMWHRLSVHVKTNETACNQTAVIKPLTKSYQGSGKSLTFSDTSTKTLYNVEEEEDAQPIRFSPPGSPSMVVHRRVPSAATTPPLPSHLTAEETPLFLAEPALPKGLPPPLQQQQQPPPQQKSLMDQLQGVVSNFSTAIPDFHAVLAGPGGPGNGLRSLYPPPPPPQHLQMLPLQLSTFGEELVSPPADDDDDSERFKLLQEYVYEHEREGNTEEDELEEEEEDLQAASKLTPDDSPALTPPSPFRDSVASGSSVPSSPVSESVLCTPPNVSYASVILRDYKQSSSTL
Sequence of human mGluR5a receptors (P41594 other isoform, or with tags, fused parts or gaps): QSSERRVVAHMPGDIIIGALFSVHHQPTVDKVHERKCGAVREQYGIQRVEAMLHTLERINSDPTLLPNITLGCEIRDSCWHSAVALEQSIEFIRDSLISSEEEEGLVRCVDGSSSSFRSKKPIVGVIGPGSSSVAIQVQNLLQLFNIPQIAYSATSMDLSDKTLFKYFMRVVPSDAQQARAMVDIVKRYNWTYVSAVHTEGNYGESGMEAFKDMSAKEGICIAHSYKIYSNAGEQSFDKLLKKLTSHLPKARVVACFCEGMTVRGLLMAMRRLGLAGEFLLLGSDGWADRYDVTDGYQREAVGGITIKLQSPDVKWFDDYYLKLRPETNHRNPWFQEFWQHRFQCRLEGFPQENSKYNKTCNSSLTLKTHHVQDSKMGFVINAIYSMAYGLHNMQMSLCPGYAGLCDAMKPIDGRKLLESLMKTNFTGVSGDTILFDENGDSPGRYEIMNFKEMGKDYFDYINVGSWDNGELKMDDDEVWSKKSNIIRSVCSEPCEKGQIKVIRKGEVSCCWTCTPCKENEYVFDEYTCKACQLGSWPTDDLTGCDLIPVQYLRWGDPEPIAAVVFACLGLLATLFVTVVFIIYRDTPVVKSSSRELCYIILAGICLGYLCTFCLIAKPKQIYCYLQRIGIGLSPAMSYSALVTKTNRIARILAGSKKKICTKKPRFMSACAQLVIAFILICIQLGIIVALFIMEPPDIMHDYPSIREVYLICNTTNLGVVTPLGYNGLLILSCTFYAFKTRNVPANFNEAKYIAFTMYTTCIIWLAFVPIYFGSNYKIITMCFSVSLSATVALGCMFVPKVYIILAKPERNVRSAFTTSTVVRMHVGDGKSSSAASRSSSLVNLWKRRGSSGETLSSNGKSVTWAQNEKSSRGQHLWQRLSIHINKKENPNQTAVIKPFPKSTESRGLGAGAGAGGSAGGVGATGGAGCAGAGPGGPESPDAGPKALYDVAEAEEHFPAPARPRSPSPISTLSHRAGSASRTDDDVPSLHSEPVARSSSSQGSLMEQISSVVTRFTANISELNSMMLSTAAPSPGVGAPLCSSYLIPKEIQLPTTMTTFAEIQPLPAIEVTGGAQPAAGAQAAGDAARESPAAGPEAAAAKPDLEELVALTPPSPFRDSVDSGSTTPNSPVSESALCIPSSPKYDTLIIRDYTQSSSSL

Compound | pIC50 (human mGluR1) | pIC50 (human mGluR5a receptors)
O=C1CN=C(n2cnc(C3(O)CC3)c2)C=C2c3cccc(C4CC4)c3CCN12 [Example 127, 9-cyclopropyl-2-(4-(1-hydroxycyclopropyl)-1H-imidazol-1-yl)-7,8-dihydro-[1,4]diazepino[7,1-a]isoquinolin-5(4H)-one] | 5.92 | 8.15
O=C1CN=C(n2cnc(CCO)c2)C=C2c3cccc(C4CC4)c3CCN12 [Example 128, 9-cyclopropyl-2-(4-(2-hydroxyethyl)-1H-imidazol-1-yl)-7,8-dihydro-[1,4]diazepino[7,1-a]isoquinolin-5(4H)-one] | 7.39 | 9.00
CC(O)c1cn(C2=NCC(=O)N3CCc4c(cccc4C4CC4)C3=C2)cn1 (stereo not shown) [Example 129, 9-cyclopropyl-2-(4-(1-hydroxyethyl)-1H-imidazol-1-yl)-7,8-dihydro-[1,4]diazepino[7,1-a]isoquinolin-5(4H)-one] | 5.82 | 8.70
O=C1CN=C(n2cnc(C(O)C3CC3)c2)C=C2c3cccc(C4CC4)c3CCN12 (stereo not shown) [Example 130, 9-cyclopropyl-2-(4-(cyclopropyl(hydroxy)methyl)-1H-imidazol-1-yl)-7,8-dihydro-[1,4]diazepino[7,1-a]isoquinolin-5(4H)-one] | 5.48 | 7.57
O=C1CN=C(n2cnc(COC(F)(F)F)c2)C=C2c3cccc(C4CC4)c3CCN12 [Example 131, 9-cyclopropyl-2-(4-((trifluoromethoxy)methyl)-1H-imidazol-1-yl)-7,8-dihydro-[1,4]diazepino[7,1-a]isoquinolin-5(4H)-one] | < 5.70 | 7.34
COC(=O)c1cccc2c1CCN1C(=O)CN=C(n3cnc(C4CC4)c3)C=C21 [Example 132, methyl 2-(4-cyclopropyl-1H-imidazol-1-yl)-5-oxo-4,5,7,8-tetrahydro-[1,4]diazepino[7,1-a]isoquinoline-9-carboxylate] | 5.68 | 7.21
O=C1CN=C(n2cnc(C3CC3)n2)C=C2c3cccc(-c4ccc(F)cn4)c3CCN12 [Example 133, 2-(3-cyclopropyl-1H-1,2,4-triazol-1-yl)-9-(5-fluoropyridin-2-yl)-7,8-dihydro-[1,4]diazepino[7,1-a]isoquinolin-5(4H)-one] | < 5.00 | 6.67
O=C1CN=C(n2cnc(C3CC3)n2)C=C2c3cccc(-c4cccc(F)n4)c3CCN12 [Example 134, 2-(3-cyclopropyl-1H-1,2,4-triazol-1-yl)-9-(6-fluoropyridin-2-yl)-7,8-dihydro-[1,4]diazepino[7,1-a]isoquinolin-5(4H)-one] | < 5.00 | 6.70
O=C1CN=C(n2cnc(C3CC3)n2)C=C2c3cccc(-c4cc(F)ccn4)c3CCN12 [Example 135, 2-(3-cyclopropyl-1H-1,2,4-triazol-1-yl)-9-(4-fluoropyridin-2-yl)-7,8-dihydro-[1,4]diazepino[7,1-a]isoquinolin-5(4H)-one] | < 5.00 | 6.08
O=C1CN=C(n2cnc(C3CC3)n2)C=C2c3cccc(-c4cnc(F)cn4)c3CCN12 [Example 136, 2-(3-cyclopropyl-1H-1,2,4-triazol-1-yl)-9-(5-fluoropyrazin-2-yl)-7,8-dihydro-[1,4]diazepino[7,1-a]isoquinolin-5(4H)-one] | < 5.70 | 7.72
Cc1ncn(C2=NCC(=O)N3CCc4c(cccc4-c4cnc(F)cn4)C3=C2)n1 [Example 137, 9-(5-fluoropyrazin-2-yl)-2-(3-methyl-1H-1,2,4-triazol-1-yl)-7,8-dihydro-[1,4]diazepino[7,1-a]isoquinolin-5(4H)-one] | < 5.00 | 7.32
O=C1CN=C(n2cnc(C3CC3)c2)C=C2c3cccc(-n4nccn4)c3CCN12 [Example 138, 2-(4-cyclopropyl-1H-imidazol-1-yl)-9-(2H-1,2,3-triazol-2-yl)-7,8-dihydro-[1,4]diazepino[7,1-a]isoquinolin-5(4H)-one] | 5.83 | 7.10
O=C1CN=C(n2cnc(C3CC3)c2)C=C2c3cccc(-c4cnc(F)cn4)c3CCN12 [Example 139, 2-(4-cyclopropyl-1H-imidazol-1-yl)-9-(5-fluoropyrazin-2-yl)-7,8-dihydro-[1,4]diazepino[7,1-a]isoquinolin-5(4H)-one] | 5.96 | 7.77
O=C1CN=C(n2cnc(C3CC3)c2)C=C2c3ccc(F)c(-c4cnc(F)nc4)c3CCN12 [Example 140] | < 5.00 | 7.03
O=C1CN=C(n2cnc(C3CC3)c2)C=C2c3cccc(-c4cncc(F)n4)c3CCN12 [Example 141, 2-(4-cyclopropyl-1H-imidazol-1-yl)-9-(6-fluoropyrazin-2-yl)-7,8-dihydro-[1,4]diazepino[7,1-a]isoquinolin-5(4H)-one] | 6.40 | 7.59
COCc1cn(C2=NCC(=O)N3CCc4c(OC(C)C)cccc4C3=C2)cn1 [Example 142, 9-isopropoxy-2-(4-(methoxymethyl)-1H-imidazol-1-yl)-7,8-dihydro-[1,4]diazepino[7,1-a]isoquinolin-5(4H)-one] | < 5.70 | 6.56
COCc1cn(C2=NCC(=O)N3CCc4c(C5CC5)cccc4C3C2)cn1 (stereo not shown) [Example 143, 9-cyclopropyl-2-(4-(methoxymethyl)-1H-imidazol-1-yl)-1,7,8,12b-tetrahydro-[1,4]diazepino[7,1-a]isoquinolin-5(4H)-one] | < 5.00 | 6.55
